Measurements from ChEMBL document CHEMBL5291721, “A preclinical secondary pharmacology resource illuminates target-adverse drug reaction associations of marketed drugs” (Nat Commun, 2023).

Legend:
[1] = target: T1, Adenosine receptor A3 (Homo sapiens, UniProt P0DMS8)
T1 sequence (P0DMS8 whole entry): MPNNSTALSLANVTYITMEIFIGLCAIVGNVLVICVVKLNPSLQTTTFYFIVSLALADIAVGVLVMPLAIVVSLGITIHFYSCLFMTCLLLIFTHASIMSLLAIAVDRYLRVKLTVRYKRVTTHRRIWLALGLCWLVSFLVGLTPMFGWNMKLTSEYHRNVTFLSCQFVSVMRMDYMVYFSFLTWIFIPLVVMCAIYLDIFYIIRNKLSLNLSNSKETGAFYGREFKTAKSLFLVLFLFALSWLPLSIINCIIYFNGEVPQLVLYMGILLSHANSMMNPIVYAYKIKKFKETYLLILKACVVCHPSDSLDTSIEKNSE

[2] = target: T2, Muscarinic acetylcholine receptor M1 (Homo sapiens, UniProt P11229); format: functional, cell-based
T2 sequence (P11229 whole entry): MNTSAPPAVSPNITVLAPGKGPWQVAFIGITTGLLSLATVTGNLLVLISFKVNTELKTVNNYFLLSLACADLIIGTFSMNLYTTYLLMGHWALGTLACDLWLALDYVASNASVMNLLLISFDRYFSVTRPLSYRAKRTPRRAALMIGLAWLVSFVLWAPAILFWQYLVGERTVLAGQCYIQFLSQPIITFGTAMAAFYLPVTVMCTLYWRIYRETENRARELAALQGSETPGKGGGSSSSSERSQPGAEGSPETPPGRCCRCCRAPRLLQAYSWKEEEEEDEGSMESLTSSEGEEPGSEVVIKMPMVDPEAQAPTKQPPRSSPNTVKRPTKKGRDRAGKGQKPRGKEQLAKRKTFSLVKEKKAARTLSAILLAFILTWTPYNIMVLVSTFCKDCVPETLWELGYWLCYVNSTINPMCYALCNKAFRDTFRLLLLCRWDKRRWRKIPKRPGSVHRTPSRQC

[3] = target: T3, Alpha-1A adrenergic receptor (Homo sapiens, UniProt P35348); format: functional, cell-based
T3 sequence (P35348 whole entry): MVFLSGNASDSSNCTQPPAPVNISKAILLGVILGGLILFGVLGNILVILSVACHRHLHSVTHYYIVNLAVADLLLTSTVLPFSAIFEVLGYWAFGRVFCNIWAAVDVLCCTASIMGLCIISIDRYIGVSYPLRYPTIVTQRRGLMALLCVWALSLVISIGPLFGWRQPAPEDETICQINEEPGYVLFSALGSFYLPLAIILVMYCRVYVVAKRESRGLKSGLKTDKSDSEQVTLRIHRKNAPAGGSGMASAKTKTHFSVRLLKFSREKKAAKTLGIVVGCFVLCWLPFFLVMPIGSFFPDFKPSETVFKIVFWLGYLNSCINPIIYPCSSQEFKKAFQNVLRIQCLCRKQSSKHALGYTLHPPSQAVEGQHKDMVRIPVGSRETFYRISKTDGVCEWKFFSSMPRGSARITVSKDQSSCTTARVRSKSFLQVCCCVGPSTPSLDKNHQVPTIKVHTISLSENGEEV
Note: assay procedure not described here.

Structure (SMILES) | AC50 [1] | AC50 [2] | AC50 [3]
C[C@@H]1C[C@H]2[C@@H]3CCC4=CC(=O)C=C[C@]4(C)[C@@]3(Cl)[C@@H](O)C[C@]2(C)[C@@]1(OC(=O)c1ccco1)C(=O)CCl [MOMETASONE FUROATE] | 1.64 µM | > 30 µM | > 10 µM
Cc1ccccc1C(=O)Nc1ccc(C(=O)N2CCCC(N(C)C)c3ccccc32)cc1 (stereo not given) [MOZAVAPTAN] | > 30 µM | > 30 µM | 18.8 µM
O=C(O)c1cc(/N=N/c2ccc(O)c(C(=O)O)c2)ccc1O [OLSALAZINE] | > 30 µM | > 30 µM | > 30 µM
CCOC(=O)C1=C[C@@H](OC(CC)CC)[C@H](NC(C)=O)[C@@H](N)C1 [OSELTAMIVIR] | > 30 µM | > 30 µM | > 30 µM
Cc1onc(-c2ccccc2)c1C(=O)N[C@@H]1C(=O)N2[C@@H]1SC(C)(C)[C@@H]2C(=O)O [OXACILLIN] | > 30 µM | > 30 µM | > 30 µM
CCn1cc(C(=O)O)c(=O)c2cc3c(cc21)OCO3 [OXOLINIC ACID] | > 30 µM | > 30 µM | > 30 µM
FC(F)(F)c1ccc(CNc2ccc(Cc3c[nH]c4ncc(Cl)cc34)cn2)cn1 [PEXIDARTINIB] | 3.69 µM | > 30 µM | 1.8 µM
Nc1ccc(C(=O)Oc2ccccc2)c(O)c1 [PHENYL AMINOSALICYLATE] | 18.4 µM | > 30 µM | 23 µM
CN1CCC(=C2c3ccccc3Sc3ccccc32)CC1 [PIMETHIXENE] | 25.9 µM | > 30 µM | 0.121 µM
[H]/N=C(\N/C(=N/[H])Nc1ccc(Cl)cc1)NC(C)C [PROGUANIL] | > 30 µM | > 30 µM | > 30 µM
CC(CN1CC(=O)NC(=O)C1)N1CC(=O)NC(=O)C1 (stereo not given) [RAZOXANE] | > 30 µM | > 30 µM | > 30 µM
N[C@@H](CO)C(=O)O [SERINE] | > 30 µM | > 30 µM | > 30 µM
CC(C)OC(=O)CCC/C=C\C[C@@H]1[C@@H](/C=C/C(F)(F)COc2ccccc2)[C@H](O)C[C@@H]1O [TAFLUPROST] | > 30 µM | > 30 µM | > 30 µM
CC[C@H]1OC(=O)[C@H](C)C(=O)[C@H](C)[C@@H](O[C@@H]2O[C@H](C)C[C@H](N(C)C)[C@H]2O)[C@](C)(OC)C[C@@H](C)C(=O)[C@H](C)[C@H]2N(CCCCn3cnc(-c4cccnc4)c3)C(=O)O[C@]12C [TELITHROMYCIN] | > 30 µM | > 30 µM | > 30 µM
CC(=O)Oc1cc(C(F)(F)F)ccc1C(=O)O [TRIFLUSAL] | > 30 µM | > 30 µM | > 30 µM
